Test results reported in ChEMBL document CHEMBL1201862, “PubChem BioAssay data set” (2004).
Counter-ions that a name gives are not always drawn.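 48-hour exposure; five concentrations; linearly interpolated endpoints. GI50: concentration for 50% inhibition of growth.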 Activity calls are given as the source filed them. Cut-off read from the data, not from the text of the source: active = GI50 up to about 1.1 µM and inactive = higher.

Assays:
Test in all cases: growth of human tumour cells (NCI), 48 h
CCRF-CEM = system: CCRF-CEM
HOP-18 = system: HOP-18
RXF 393 = system: RXF 393
HCT-15 = system: HCT-15
OVCAR-8 = system: OVCAR-8
A549 = system: A549
LXFL 529 = system: LXFL 529
HCC 2998 = system: HCC 2998
SW-620 = system: SW-620
OVCAR-5 = system: OVCAR-5
U-251 = system: U-251
RXF 631 = system: RXF 631
XF498 = system: XF498
NCI-H23 = system: NCI-H23
COLO 205 = system: COLO 205
KM12 = system: KM12
UACC-62 = system: UACC-62
NCI-H460 = system: NCI-H460
LOX IMVI = system: LOX IMVI
M14 = system: M14
UACC-257 = system: UACC-257
RPMI-8226 = system: RPMI-8226
SF-268 = system: SF-268
DMS-273 = system: DMS-273
M19-MEL = system: M19-MEL
KM-20L2 = system: KM-20L2
OVCAR-4 = system: OVCAR-4
UO-31 = system: UO-31
K562 = system: K562
HCT-116 = system: HCT-116
SR = system: SR
SK-MEL-2 = system: SK-MEL-2
SNB-19 = system: SNB-19
MOLT-4 = system: MOLT-4
DMS-114 = system: DMS-114
SNB-78 = system: SNB-78
CAKI-1 = system: CAKI-1
SK-MEL-5 = system: SK-MEL-5
SF-539 = system: SF-539
TK-10 = system: TK-10
EKVX = system: EKVX
HT-29 = system: HT-29
NCI-H522 = system: NCI-H522
OVCAR-3 = system: OVCAR-3
SNB-75 = system: SNB-75
ACHN = system: ACHN
SK-MEL-28 = system: SK-MEL-28
IGROV-1 = system: IGROV-1
HOP-62 = system: HOP-62
SF-295 = system: SF-295
DLD-1 = system: DLD-1
NCI-H226 = system: NCI-H226
786-0 = system: 786-0
SK-OV-3 = system: SK-OV-3
Malme-3M = system: Malme-3M
SN12C = system: SN12C
A498 = system: A498
HL-60 = system: HL-60
HOP-92 = system: HOP-92

## CC(=O)Oc1ccc(O)c2c1CCCC2
CCRF-CEM
  GI50: 10.2 µM (inactive)
HOP-18
  GI50: 21.6 µM (inactive)
RXF 393
  GI50: > 42.8 µM (inactive)
HCT-15
  GI50: 13.4 µM
OVCAR-8
  GI50: 18 µM (inactive)
A549
  GI50: > 100 µM (inactive)
LXFL 529
  GI50: 16.3 µM (inactive)
HCC 2998
  GI50: > 100 µM (inactive)
SW-620
  GI50: 20.8 µM (inactive)
OVCAR-5
  GI50: > 100 µM (inactive)
U-251
  GI50: > 78.3 µM (inactive)
RXF 631
  GI50: > 100 µM (inactive)
XF498
  GI50: 16.4 µM (inactive)
NCI-H23
  GI50: > 52.8 µM (inactive)
COLO 205
  GI50: 22.4 µM (inactive)
KM12
  GI50: > 100 µM (inactive)
UACC-62
  GI50: > 75.5 µM (inactive)
NCI-H460
  GI50: > 31.6 µM (inactive)
LOX IMVI
  GI50: 19.4 µM (inactive)
M14
  GI50: 24.2 µM (inactive)
UACC-257
  GI50: 39.9 µM (inactive)
RPMI-8226
  GI50: 23.3 µM (inactive)
SF-268
  GI50: 58.3 µM (inactive)
DMS-273
  GI50: > 46.1 µM (inactive)
M19-MEL
  GI50: 13.4 µM (inactive)
KM-20L2
  GI50: > 100 µM (inactive)
OVCAR-4
  GI50: 19 µM (inactive)
UO-31
  GI50: > 45.5 µM (inactive)
K562
  GI50: 22.2 µM (inactive)
HCT-116
  GI50: 18.4 µM (inactive)
SR
  GI50: 2.82 µM (inactive)
SK-MEL-2
  GI50: > 100 µM (inactive)
SNB-19
  GI50: > 100 µM (inactive)
MOLT-4
  GI50: 12.1 µM (inactive)
DMS-114
  GI50: 30.2 µM (inactive)
SNB-78
  GI50: 19.8 µM (inactive)
CAKI-1
  GI50: 31.1 µM (inactive)
SK-MEL-5
  GI50: > 45.7 µM (inactive)
SF-539
  GI50: > 100 µM (inactive)
TK-10
  GI50: 21.4 µM (inactive)
EKVX
  GI50: 64.9 µM (inactive)
HT-29
  GI50: 35.7 µM (inactive)
NCI-H522
  GI50: 13.6 µM (inactive)
OVCAR-3
  GI50: 12.5 µM (inactive)
SNB-75
  GI50: > 100 µM (inactive)
ACHN
  GI50: 15.2 µM (inactive)
SK-MEL-28
  GI50: 66.4 µM (inactive)
IGROV-1
  GI50: > 100 µM (inactive)
HOP-62
  GI50: > 100 µM (inactive)
SF-295
  GI50: > 100 µM (inactive)
DLD-1
  GI50: 20.7 µM (inactive)
NCI-H226
  GI50: > 100 µM (inactive)
786-0
  GI50: > 100 µM (inactive)
SK-OV-3
  GI50: 46.7 µM (inactive)
Malme-3M
  GI50: > 40.5 µM (inactive)
SN12C
  GI50: > 45.4 µM (inactive)
A498
  GI50: > 31.6 µM (inactive)
HL-60
  GI50: 3.66 µM (inactive)

## Cc1nccc2c1[nH]c1cc(O)ccc12 [HARMOL HYDROCHLORIDE]
CCRF-CEM
  GI50: 38.5 µM (inactive)
HOP-18
  GI50: 38 µM (inactive)
RXF 393
  GI50: > 100 µM (inactive)
HCT-15
  GI50: 61.4 µM
OVCAR-8
  GI50: 49.2 µM (inactive)
A549
  GI50: 44.8 µM (inactive)
LXFL 529
  GI50: > 100 µM (inactive)
HCC 2998
  GI50: 91 µM (inactive)
HOP-92
  GI50: 27.5 µM (inactive)
SW-620
  GI50: 39.1 µM (inactive)
OVCAR-5
  GI50: 68.2 µM (inactive)
U-251
  GI50: > 100 µM (inactive)
RXF 631
  GI50: > 100 µM (inactive)
XF498
  GI50: 28.4 µM (inactive)
NCI-H23
  GI50: 76.7 µM (inactive)
COLO 205
  GI50: > 100 µM (inactive)
KM12
  GI50: 55.8 µM (inactive)
UACC-62
  GI50: 96.6 µM (inactive)
NCI-H460
  GI50: 37.4 µM (inactive)
LOX IMVI
  GI50: 45.6 µM (inactive)
M14
  GI50: > 100 µM (inactive)
UACC-257
  GI50: 82.4 µM (inactive)
RPMI-8226
  GI50: 44.5 µM (inactive)
SF-268
  GI50: > 100 µM (inactive)
DMS-273
  GI50: 54.5 µM (inactive)
M19-MEL
  GI50: > 100 µM (inactive)
KM-20L2
  GI50: > 100 µM (inactive)
OVCAR-4
  GI50: > 100 µM (inactive)
UO-31
  GI50: 37.6 µM (inactive)
K562
  GI50: 37.1 µM (inactive)
HCT-116
  GI50: 41.5 µM (inactive)
SK-MEL-2
  GI50: > 100 µM (inactive)
SNB-19
  GI50: > 100 µM (inactive)
MOLT-4
  GI50: 23.7 µM (inactive)
DMS-114
  GI50: 70.3 µM (inactive)
SNB-78
  GI50: > 100 µM (inactive)
CAKI-1
  GI50: 41.1 µM (inactive)
SK-MEL-5
  GI50: 69.2 µM (inactive)
SF-539
  GI50: 73.3 µM (inactive)
TK-10
  GI50: > 100 µM (inactive)
EKVX
  GI50: 68.2 µM (inactive)
HT-29
  GI50: 56.5 µM (inactive)
OVCAR-3
  GI50: 42.5 µM (inactive)
SNB-75
  GI50: 33 µM (inactive)
ACHN
  GI50: 31.8 µM (inactive)
SK-MEL-28
  GI50: > 100 µM (inactive)
IGROV-1
  GI50: 45.8 µM (inactive)
HOP-62
  GI50: 91.6 µM (inactive)
SF-295
  GI50: 33 µM (inactive)
DLD-1
  GI50: 51.1 µM (inactive)
NCI-H226
  GI50: 96.6 µM (inactive)
786-0
  GI50: 55.2 µM (inactive)
SK-OV-3
  GI50: > 100 µM (inactive)
Malme-3M
  GI50: 44.7 µM (inactive)
SN12C
  GI50: 76.4 µM (inactive)
A498
  GI50: 63.4 µM (inactive)
HL-60
  GI50: 29 µM (inactive)
